Test results taken from patent US10954214B2 (Janssen Pharmaceutica NV, priority 2016, dated 2021).

Experiments:
OCI-Ly3 cells = test: 4-day proliferation assay, OCI-Ly3; assay type: cell-based, human; details: Homo sapiens, 96 h, 4 days incubation, CellTiterGLO, read-out: Anti-proliferation: OCI-LY-3 IC50
Outline: (§1)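 TMD8 and OCI-Ly3 cells were seeded at 10,000 per well and grown 4 days at 37° C, 5% CO2 without beta-mercaptoethanol. Viability was read by CellTiter-Glo luminescence. IC50 and Hill slope were fitted relative to the low control median.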

TMD8 cells = test: 4-day proliferation assay, TMD8; assay type: cell-based; details: Homo sapiens, 96 h, 4 days incubation, CellTiterGLO, read-out: Anti-proliferation: TMD-8 IC50
Outline: as §1

[1] = system: IL10 secretion by TMD8 ABC-DLBCL cells; test: Human IL10 Mesoscale assay (TMD-8); assay type: cell-based; details: Homo sapiens, TMD8; TMD-8 cells, 24 h
Outline: (§2)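 TMD8 or OCI-LY3 cells (100,000/well) were exposed to compounds in 9 twofold dilutions from 15 μM to 58.6 nM (0.3% DMSO) for 24 h at 37 °C. Supernatant IL6 and IL10 were quantified by MSD electrochemiluminescence immunoassay. DMSO defined maximum signal and BTK inhibitor RN486 (30 nM–131 pM) defined maximum inhibition.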

[2] = system: IL6 secretion by TMD8 ABC-DLBCL cells; test: Human IL6 Mesoscale assay (TMD-8); assay type: cell-based; details: Homo sapiens, TMD8; TMD-8 cells, 24 h
Outline: as §2

[3] = biological target: full-length MALT1 protein (Strep-MALT1(1-824)-His) (Homo sapiens (Human), UniProt Q9UDY8); test: MALT1 Biochemical Protease Assay (Ac-LRSR-AMC substrate); details: 10 nM FL MALT1, 200 μM Ac-LRSR-AMC, 4 h at RT; read-out: MALT1_Biochemical activity (Ac-LRSR-amc) IC50
Sequence of full-length MALT1 protein (Strep-MALT1(1-824)-His) (Q9UDY8 whole entry): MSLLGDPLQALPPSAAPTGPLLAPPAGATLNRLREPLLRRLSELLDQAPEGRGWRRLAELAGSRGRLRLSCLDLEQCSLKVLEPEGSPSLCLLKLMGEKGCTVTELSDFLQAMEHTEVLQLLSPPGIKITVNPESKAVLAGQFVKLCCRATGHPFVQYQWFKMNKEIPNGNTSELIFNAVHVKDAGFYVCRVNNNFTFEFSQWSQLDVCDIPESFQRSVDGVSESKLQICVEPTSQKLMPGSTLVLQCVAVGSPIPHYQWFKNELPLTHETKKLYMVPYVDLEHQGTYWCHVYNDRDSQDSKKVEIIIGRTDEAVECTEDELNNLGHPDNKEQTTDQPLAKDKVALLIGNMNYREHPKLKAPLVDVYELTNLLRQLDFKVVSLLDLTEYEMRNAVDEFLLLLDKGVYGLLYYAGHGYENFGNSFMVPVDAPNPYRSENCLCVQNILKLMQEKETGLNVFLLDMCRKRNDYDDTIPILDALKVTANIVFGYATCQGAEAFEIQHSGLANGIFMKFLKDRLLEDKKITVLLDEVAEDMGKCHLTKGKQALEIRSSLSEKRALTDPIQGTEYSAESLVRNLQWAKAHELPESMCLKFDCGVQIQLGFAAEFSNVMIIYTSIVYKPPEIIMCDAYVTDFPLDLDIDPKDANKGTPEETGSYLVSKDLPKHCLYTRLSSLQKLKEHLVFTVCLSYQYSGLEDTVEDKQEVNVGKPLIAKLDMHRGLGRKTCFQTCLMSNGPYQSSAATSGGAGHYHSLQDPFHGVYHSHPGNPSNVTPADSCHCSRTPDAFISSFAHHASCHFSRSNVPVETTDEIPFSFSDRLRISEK
Outline: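 Full-length MALT1 pre-incubated with compounds (30 μM to 0.5 nM, 11 threefold steps) for 50 min at RT. After Ac-LRSR-AMC was added, the reaction ran 4 h at RT and AMC fluorescence was read. IC50 and Hill slope from curve fitting against no-enzyme and no-compound controls.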

| IC50 (OCI-Ly3 cells) [µM] | IC50 [1] [µM] | IC50 [2] [µM] | IC50 [3] [µM] | Structure (SMILES) | IC50 (TMD8 cells) [µM] |
| --- | --- | --- | --- | --- | --- |
| 0.325 | 0.085 | 0.102 | 0.03 | O=C(Nc1cnc(-n2nccn2)c(Cl)c1)c1cnn(-c2cccc3nnsc23)c1C(F)(F)F [Cpd 120, 1-(benzo[d][1,2,3]thiadiazol-7-yl)-N-(5-chloro-6-(2H-1,2,3-triazol-2-yl)pyridin-3-yl)-5-(trifluoromethyl)-1H-pyrazole-4-carboxamide] | 1.95 |
| > 20 | 1.05 | 7.41 | 1.1 | Cc1cncc2c(-n3ncc(C(=O)Nc4cnc(-n5nccn5)c(Cl)c4)c3C(F)(F)F)cccc12 [Cpd 33, N-(5-Chloro-6-(2H-1,2,3-triazol-2-yl)pyridin-3-yl)-1-(4-methylisoquinolin-8-yl)-5-(trifluoromethyl)-1H-pyrazole-4-carboxamide] | > 20 |
| 0.486 | 2.34 | 2.51 | 0.033 | N#Cc1nccc2c(-n3ncc(C(=O)Nc4cnc(-n5nccn5)c(Cl)c4)c3C(F)(F)F)cccc12 [Cpd 411, N-(5-chloro-6-(2H-1,2,3-triazol-2-yl)pyridin-3-yl)-1-(1-cyanoisoquinolin-5-yl)-5-(trifluoromethyl)-1H-pyrazole-4-carboxamide] | 0.871 |
| 0.482 | 0.049 | 0.052 | 0.028 | NC(=O)c1cnn(-c2ncc(NC(=O)c3cnn(-c4cccc5ncccc45)c3C(F)(F)F)cc2Cl)n1 [Cpd 144, 2-(3-chloro-5-(1-(quinolin-5-yl)-5-(trifluoromethyl)-1H-pyrazole-4-carboxamido)pyridin-2-yl)-2H-1,2,3-triazole-4-carboxamide] | 2.57 |
| ~1.35 | 0.138 | 0.135 | 0.123 | CCOc1ncc(NC(=O)c2cnn(-c3cccc4ncccc34)c2C(F)(F)F)cc1C#N [Cpd 81, N-(5-cyano-6-ethoxypyridin-3-yl)-1-(quinolin-5-yl)-5-(trifluoromethyl)-1H-pyrazole-4-carboxamide] | 11.5 |
| 1.26 | 0.224 | 0.263 | 0.102 | O=C(Nc1cnc(-n2nccn2)c(F)c1)c1cnn(-c2cncc3ccccc23)c1C(F)(F)F [Cpd 61, N-(5-fluoro-6-(2H-1,2,3-triazol-2-yl)pyridin-3-yl)-1-(isoquinolin-4-yl)-5-(trifluoromethyl)-1H-pyrazole-4-carboxamide] | ~14.1 |
| 0.626 | 0.047 | 0.126 | 0.028 | N#Cc1cc(NC(=O)c2cnn(-c3cncc4ncccc34)c2C(F)(F)F)cnc1-n1nccn1 [Cpd 145, N-(5-cyano-6-(2H-1,2,3-triazol-2-yl)pyridin-3-yl)-1-(1,7-naphthyridin-5-yl)-5-(trifluoromethyl)-1H-pyrazole-4-carboxamide] | 4.57 |
| 0.505 | 0.031 | 0.045 | 0.007 | NC(=O)c1ncc(-n2ncc(C(=O)Nc3cnc(-n4nccn4)c(Cl)c3)c2C(F)(F)F)c2ccsc12 [Cpd 391, 4-(4-((5-chloro-6-(2H-1,2,3-triazol-2-yl)pyridin-3-yl)carbamoyl)-5-(trifluoromethyl)-1H-pyrazol-1-yl)thieno[2,3-c]pyridine-7-carboxamide] | 0.676 |
| 0.759 | 2.63 | 0.912 | 0.029 | Cn1nnc(-c2ncc(NC(=O)c3cnn(-c4cccc5ncccc45)c3C(F)(F)F)cc2C#N)n1 [Cpd 149, N-(5-cyano-6-(2-methyl-2H-tetrazol-5-yl)pyridin-3-yl)-1-(quinolin-5-yl)-5-(trifluoromethyl)-1H-pyrazole-4-carboxamide] | 4.37 |
| 0.593 | 0.015 | 0.021 | 0.02 | Cc1nc(-n2nccn2)c(C#N)cc1NC(=O)c1cnn(-c2cncc3c(F)cccc23)c1C(F)(F)F [Cpd 124, N-(5-cyano-2-methyl-6-(2H-1,2,3-triazol-2-yl)pyridin-3-yl)-1-(8-fluoroisoquinolin-4-yl)-5-(trifluoromethyl)-1H-pyrazole-4-carboxamide] | 0.977 |
| 1.08 | 0.204 | > 3.02 | 0.047 | O=C(Nc1ccc(-n2cc(CO)cn2)c(Cl)c1)c1cnn(-c2cccc3ncccc23)c1C(F)(F)F [Cpd 175, N-(3-chloro-4-(4-(hydroxymethyl)-1H-pyrazol-1-yl)phenyl)-1-(quinolin-5-yl)-5-(trifluoromethyl)-1H-pyrazole-4-carboxamide] | 1.23 |
| 0.505 | 0.039 | 0.051 | 0.025 | O=C(Nc1cnc(-n2nccn2)c(Cl)c1)c1cnn(-c2nccn3nccc23)c1C(F)(F)F [Cpd 141, N-(5-chloro-6-(2H-1,2,3-triazol-2-yl)pyridin-3-yl)-1-(pyrazolo[1,5-a]pyrazin-4-yl)-5-(trifluoromethyl)-1H-pyrazole-4-carboxamide] | 6.03 |
| 0.38 | 0.017 | 0.107 | 0.026 | N#Cc1cc(NC(=O)c2cnn(-c3ncnc4sccc34)c2C(F)(F)F)cnc1-n1nccn1 [Cpd 142, N-(5-cyano-6-(2H-1,2,3-triazol-2-yl)pyridin-3-yl)-1-(thieno[2,3-d]pyrimidin-4-yl)-5-(trifluoromethyl)-1H-pyrazole-4-carboxamide] | 0.832 |
| 0.74 | 0.095 | 0.074 | 0.041 | Cn1ccc(-c2ncc(NC(=O)c3cnn(-c4cccc5ncccc45)c3C(F)(F)F)cc2C#N)n1 [Cpd 89, N-(5-cyano-6-(1-methyl-1H-pyrazol-3-yl)pyridin-3-yl)-1-(quinolin-5-yl)-5-(trifluoromethyl)-1H-pyrazole-4-carboxamide] | > 20 |
| 0.26 | 0.12 | 0.282 | 0.06 | Cc1cnc2cccc(-n3ncc(C(=O)Nc4cnc(-n5nccn5)c(Cl)c4)c3C(F)(F)F)c2c1 [Cpd 65, N-(5-Chloro-6-(2H-1,2,3-triazol-2-yl)pyridin-3-yl)-1-(3-methylquinolin-5-yl)-5-(trifluoromethyl)-1H-pyrazole-4-carboxamide] | 10.2 |
| 1.12 | > 0.302 | > 0.302 | 0.023 | COC(=O)c1cnn(-c2ncc(NC(=O)c3cnn(-c4cccc5ncccc45)c3C(F)(F)F)cc2Cl)n1 [Cpd 108, Methyl 2-(3-chloro-5-(1-(quinolin-5-yl)-5-(trifluoromethyl)-1H-pyrazole-4-carboxamido)pyridin-2-yl)-2H-1,2,3-triazole-4-carboxylate] | 1.66 |
| 0.14 | 0.074 | 0.068 | 0.031 | N#Cc1cc(NC(=O)c2cnn(-c3cncc4ccccc34)c2C(F)(F)F)ccc1-n1nccn1 [Cpd 59, N-(3-Cyano-4-(2H-1,2,3-triazol-2-yl)phenyl)-1-(isoquinolin-4-yl)-5-(trifluoromethyl)-1H-pyrazole-4-carboxamide] | 6.76 |
| 0.81 | 0.132 | 0.331 | 0.069 | Cc1ncc(-n2ncc(C(=O)Nc3cnc(-n4nccn4)c(Cl)c3)c2C(F)(F)F)c2ccccc12 [Cpd 66, N-(5-chloro-6-(2H-1,2,3-triazol-2-yl)pyridin-3-yl)-1-(1-methylisoquinolin-4-yl)-5-(trifluoromethyl)-1H-pyrazole-4-carboxamide] | ~8.71 |
| 0.37 | 0.257 | 0.417 | 0.151 | O=C(Nc1cnc(-n2nccn2)c(Cl)c1)c1cnn(-c2cccc3[nH]ncc23)c1C(F)(F)F [Cpd 68, N-(5-Chloro-6-(2H-1,2,3-triazol-2-yl)pyridin-3-yl)-1-(1H-indazol-4-yl)-5-(trifluoromethyl)-1H-pyrazole-4-carboxamide] | ~19.1 |
| 5.75 | 0.417 | 0.468 | 0.2 | Cn1ccnc1-c1ncc(NC(=O)c2cnn(-c3cncc4ccccc34)c2C(F)(F)F)cc1Cl [Cpd 98, N-(5-chloro-6-(1-methyl-1H-imidazol-2-yl)pyridin-3-yl)-1-(isoquinolin-4-yl)-5-(trifluoromethyl)-1H-pyrazole-4-carboxamide] | ~11 |

| Structure (SMILES) | IC50 (OCI-Ly3 cells) [µM] | IC50 [1] [µM] | IC50 [2] [µM] | IC50 [3] [µM] | IC50 (TMD8 cells) [µM] |
| --- | --- | --- | --- | --- | --- |
| N#Cc1cc(NC(=O)c2cnn(-c3cncc4ccccc34)c2C(F)(F)F)cnc1OCCCCN [Cpd 84, N-(6-(4-aminobutoxy)-5-cyanopyridin-3-yl)-1-(isoquinolin-4-yl)-5-(trifluoromethyl)-1H-pyrazole-4-carboxamide] | 1.7 | 0.355 | 0.148 | 0.214 | > 20 |
